Here are results for one substance from US20010051628A1, “METHODS TO MODULATE THE RESISTANCE OF CELLS TO APOPTOSIS MEDIATED BY MUTANT EPIDERMAL GROWTH FACTOR RECEPTORS” (priority 1998, published 2001).

The subject of the experiment is caspase-3-like protease. In words: Inhibition of caspase activity by pre-incubating cell lysates with inhibitor. The experiment is classed as biochemical, human. Particulars: 10 μM, lysates pre-incubated at 37° C. for 30 min. As for the experimental part: (A) Total cell lysates were prepared 2 days after treatment with 5 μg/ml CDDP. Samples were assayed for protease activity using the peptide substrate, Ac-DEVD-pNA. […] Cells were also treated with the plasma membrane-soluble caspase inhibitor Z-Asp-CH2DCB (200 μM) prior to and during CDDP treatment. □, U87MG; ▪, U87MG.ΔEGFR;_, U87MG.DK;_, U87MG.wtEGFR. […] (B) Proteolytic cleavage of PARP after CDDP treatment. For each sample, 20 μg total clarified protein lysate was loaded on to SDS-PAGE gels, electrophoresed, transferred to membranes and probed with anti-PARP monoclonal antibodies. FL, full-length; CF, cleaved fragment.
Cells were lysed in lysis buffer (ApoAlert, Clontech, Palo Alto, Calif.) for 15 min on ice, followed by centrifugation. Protease assays included 89 μl of reaction buffer (100 mM HEPES, pH 7.5, 20% v/v glycerol, 6 mM dithiothreitol, and 0.5 mM EDTA), I μl of 10 mM acetyl-Asp-Glu-Val-Asp-p-nitroanilide (Ac-DEVD-pNA) in DMSO (California Peptide Research, Inc., Napa, Calif.), and 10 μl of equal protein cell lysate. Samples were incubated at 37° C., and enzyme-catalyzed release of p-nitroanilide (pNA) was monitored at […] for 1 h in a microtiter plate reader (Molecular Devices Inc., Sunnyvale, Calif.). […] Values for picomoles of pNA released were calculated from those observed in OD405 values using a standard curve of pNA. […]

For the substance “Ac-Asp-Glu-Val-Asp-aldehyde (Ac-DEVD-aldehyde) [Ac-DEVD-CHO]”, the “effect on increased caspase activities of lysates from CDDP-treated cells” value is reported as “completely abolished”.
